Results reported in US20260001862A1, “QUINOXALINEDIONE AND PYRIDO[2,3-B]PYRAZINE-2,3-DIONE B CELL LYMPHOMA 6 (BCL6) DEGRADERS AND USES THEREOF” (DANA-FARBER CANCER INSTITUTE, INC., priority 2022, published 2026).

Biological target: T1, Endogenous BCL6 (Homo sapiens, UniProt P41182)
T1 construct: Endogenous BCL6 was tagged with the 11-amino acid SmBiT through CRISPR/Cas9 gene editing; endogenous in cells; host or cells: SU-DHL-4 (CRISPR/Cas9 knock-in single cell clone)
Experiment: HiBiT cellular degradation assay in SU-DHL-4 cells
Assay type: cell-based
Conditions: 24 hours of compound treatment, concentration to reach 50% degradation
Method: DC50 (concentration to reach 50% degradation) values were determined from a cellular degradation assay (HiBiT, Promega™) in Su-DHL-4 cells (Table 1). Endogenous BCL6 was tagged with the 11-amino acid SmBiT through CRISPR/Cas9 gene editing and single cell clone selection. After 24 hours of compound treatment, cells were lysed and incubated with LgBiT protein to reconstitute intact nanoluciferase. Substrate was then added and relative luciferase units were measured. Degradation levels for each treatment were taken as a percentage compared to the control, 100% DMSO (Prism).

| SMILES | DC50 [µM] |
| --- | --- |
| CNC(=O)CCn1c(=O)c(=O)n(C)c2ccc(Nc3nc(N4C[C@H](C)C[C@H](C)C4)ncc3Cl)cc21 [Compound 1, 3-(7-((5-chloro-2-((3S,5R)-3,5-dimethylpiperidin-1-yl)pyrimidin-4-yl)amino)-4-methyl-2,3-dioxo-3,4-dihydroquinoxalin-1(2H)-yl)-N-methylpropanamide] | 0.025 |
| C[C@@H]1CN(c2ncc(Cl)c(Nc3ccc4c(c3)n(CCC(=O)NC3CCN(C)C3)c(=O)c(=O)n4C)n2)C[C@H](C)C1(F)F (stereo partly shown) [Compound 9] | 0.22 |
| C[C@@H]1CN(c2ncc(Cl)c(Nc3ccc4c(c3)n(CCC(=O)NC3CCOC3)c(=O)c(=O)n4C)n2)C[C@H](C)C1(F)F (stereo partly shown) [Compound 29] | 0.071 |
| C[C@@H]1CN(c2ncc(Cl)c(Nc3ccc4c(c3)n(CC(=O)NC3CN(C)C3)c(=O)c(=O)n4C)n2)C[C@H](C)C1(F)F [Compound 58] | 0.87 |
| C[C@@H]1CN(c2ncc(Cl)c(Nc3ccc4c(c3)n(CC(=O)NC3CCN(C)C3)c(=O)c(=O)n4C)n2)C[C@H](C)C1(F)F (stereo partly shown) [Compound 59] | 0.97 |
| C[C@@H]1CN(c2ncc(Cl)c(Nc3ccc4c(c3)n(CC(=O)NC3CCN(C)CC3)c(=O)c(=O)n4C)n2)C[C@H](C)C1(F)F [Compound 60] | 1.12 |
| CNC(=O)C(C)(C)Cn1c(=O)c(=O)n(C)c2ccc(Nc3nc(N4C[C@@H](C)C(F)(F)[C@@H](C)C4)ncc3Cl)cc21 [Compound 68] | 0.1 |
| CNC(=O)[C@H]1C[C@@H](n2c(=O)c(=O)n(C)c3ccc(Nc4nc(N5C[C@@H](C)C(F)(F)[C@@H](C)C5)ncc4Cl)cc32)C1 [Compound 75-1] | 0.29 |
| CNC(=O)[C@H]1C[C@H](n2c(=O)c(=O)n(C)c3ccc(Nc4nc(N5C[C@@H](C)C(F)(F)[C@@H](C)C5)ncc4Cl)cc32)C1 [Compound 75-2] | 0.1 |
| CNC(=O)CCn1c(=O)c(=O)n(C)c2ccc(Nc3nc(N4C[C@@H](O)C(F)(F)[C@@H](C)C4)ncc3Cl)cc21 [Compound 85] | 0.094 |
| CNC(=O)Cn1c(=O)c(=O)n(C)c2ccc(Nc3nc(N4C[C@@H](C)C(F)(F)[C@@H](N)C4)ncc3Cl)cc21 [Compound 86] | 0.12 |
| CNC(=O)Cn1c(=O)c(=O)n(C)c2ccc(Nc3nc(N4C[C@@H](N)C(F)(F)[C@@H](C)C4)ncc3Cl)cc21 [Compound 87] | 0.23 |
| C[C@@H]1C[C@H](C)CN(c2ncc(Cl)c(Nc3ccc4c(c3)n(CC[C@@H](C)O)c(=O)c(=O)n4C)n2)C1 [Compound 107] | 0.047 |
| C[C@@H]1CN(c2ncc(Cl)c(Nc3ccc4c(c3)n(C[C@H]3C[C@H](O)C3)c(=O)c(=O)n4C)n2)C[C@H](C)C1F (stereo partly shown) [Compound 108] | 0.043 |
| C[C@@H]1CN(c2ncc(Cl)c(Nc3ccc4c(c3)n(C[C@H]3C[C@@H](O)C3)c(=O)c(=O)n4C)n2)C[C@H](C)C1F (stereo partly shown) [Compound 109] | 0.004 |
| C[C@@H]1CN(c2ncc(Cl)c(Nc3ccc4c(c3)n(CCC3(O)CC3)c(=O)c(=O)n4C)n2)C[C@H](C)C1F (stereo partly shown) [Compound 110] | 0.018 |
| C[C@@H]1CN(c2ncc(Cl)c(Nc3ccc4c(c3)n(CCC3(O)CCC3)c(=O)c(=O)n4C)n2)C[C@H](C)C1F (stereo partly shown) [Compound 111] | 0.034 |
| C[C@@H]1CN(c2ncc(Cl)c(Nc3ccc4c(c3)n(CCC3(O)COC3)c(=O)c(=O)n4C)n2)C[C@H](C)C1F (stereo partly shown) [Compound 112] | 0.025 |
| C[C@@H]1CN(c2ncc(Cl)c(Nc3ccc4c(c3)n(C[C@@H]3CNC(=O)O3)c(=O)c(=O)n4C)n2)C[C@H](C)[C@@H]1F [Compound 117] | 0.13 |
| C[C@@H]1CN(c2ncc(Cl)c(Nc3ccc4c(c3)n(C[C@@H]3COC(=O)N3)c(=O)c(=O)n4C)n2)C[C@H](C)[C@@H]1F [Compound 118] | 0.12 |
| C[C@@H]1CN(c2nc(Nc3ccc4c(c3)n(CCC3(O)CC3)c(=O)c(=O)n4C)c(Cl)cc2C#N)C[C@H](C)[C@@H]1F [Compound 119] | 0.013 |
| CNC(=O)CCn1c(=O)c(=O)n(C)c2ccc(Nc3nc(N4C[C@H](CCO)C(F)(F)[C@H](C)C4)c(C#N)cc3Cl)cc21 [Compound 120] | 1.9 |
| CNC(=O)CCn1c(=O)c(=O)n(C)c2ccc(Nc3nc(N4C[C@@H](CCO)C(F)(F)[C@@H](C)C4)c(C#N)cc3Cl)cc21 [Compound 121] | 0.071 |
| C[C@@H]1CN(c2ncc(Cl)c(Nc3ccc4c(c3)n(CC[C@@H](C)O)c(=O)c(=O)n4C)n2)C[C@H](C)[C@@H]1F [Compound 122] | 0.019 |
| C[C@H](O)CCn1c(=O)c(=O)n(C)c2ccc(Nc3nc(N4C[C@@H](C)[C@@H](F)[C@@H](C)C4)ncc3Cl)cc21 [Compound 123] | 0.023 |

The next lines start with the values.

| DC50 [µM] | SMILES |
| --- | --- |
| > 10 | C[C@@H]1CN(c2ncc(Cl)c(Nc3ccc4c(c3)n(CCC(=O)NC3CN(C)C3)c(=O)c(=O)n4C)n2)C[C@H](C)C1(F)F [Compound 8] |
| 3.1 | C[C@@H]1CN(c2ncc(Cl)c(Nc3ccc4c(c3)n(CCC(=O)NCC3CN(C)C3)c(=O)c(=O)n4C)n2)C[C@H](C)C1(F)F [Compound 11] |
| 1.8 | C[C@@H]1CN(c2ncc(Cl)c(Nc3ccc4c(c3)n(CCC(=O)NCC3CCN(C)C3)c(=O)c(=O)n4C)n2)C[C@H](C)C1(F)F (stereo partly shown) [Compound 12] |
| 0.45 | C[C@@H]1CN(c2ncc(Cl)c(Nc3ccc4c(c3)n(CCC(=O)NCCN(C)C)c(=O)c(=O)n4C)n2)C[C@H](C)C1(F)F [Compound 18] |
| 0.5 | C[C@@H]1CN(c2ncc(Cl)c(Nc3ccc4c(c3)n(CCC(=O)NCCCN(C)C)c(=O)c(=O)n4C)n2)C[C@H](C)C1(F)F [Compound 19] |
| 0.032 | C[C@@H]1CN(c2ncc(Cl)c(Nc3ccc4c(c3)n(CCC(=O)NC3COC3)c(=O)c(=O)n4C)n2)C[C@H](C)C1(F)F [Compound 28] |
| 0.16 | C[C@@H]1CN(c2ncc(Cl)c(Nc3ccc4c(c3)n(CCC(=O)NCC3COC3)c(=O)c(=O)n4C)n2)C[C@H](C)C1(F)F [Compound 31] |
| 0.15 | C[C@@H]1CN(c2ncc(Cl)c(Nc3ccc4c(c3)n(CCC(=O)NCC3CCOC3)c(=O)c(=O)n4C)n2)C[C@H](C)C1(F)F (stereo partly shown) [Compound 32] |
| 0.014 | CNC(=O)Cn1c(=O)c(=O)n(C)c2ccc(Nc3nc(N4C[C@@H](C)C(F)(F)[C@@H](C)C4)ncc3Cl)cc21 [Compound 56, 2-(7-((5-chloro-2-((3R,5S)-4,4-difluoro-3,5-dimethylpiperidin-1-yl)pyrimidin-4-yl)amino)-4-methyl-2,3-dioxo-3,4-dihydroquinoxalin-1(2H)-yl)-N-methylacetamide] |
| 0.34 | C[C@@H]1CN(c2ncc(Cl)c(Nc3ccc4c(c3)n(CC(=O)NCCN(C)C)c(=O)c(=O)n4C)n2)C[C@H](C)C1(F)F [Compound 57] |
| 0.13 | C[C@@H]1CN(c2ncc(Cl)c(Nc3ccc4c(c3)n(CCC(=O)NCC(C)(C)O)c(=O)c(=O)n4C)n2)C[C@H](C)C1(F)F [Compound 73] |
| > 10 | CNC(=O)CCn1c(=O)c(=O)n(C)c2ccc(Nc3nc(N4C[C@H](CCN)C(F)(F)[C@H](C)C4)ncc3Cl)cc21 [Compound 80] |
| 0.25 | CNC(=O)CCn1c(=O)c(=O)n(C)c2ccc(Nc3nc(N4C[C@@H](CCN)C(F)(F)[C@@H](C)C4)ncc3Cl)cc21 [Compound 81] |
| 0.084 | CNC(=O)CCn1c(=O)c(=O)n(C)c2ccc(Nc3nc(N4C[C@@H](C)C(F)(F)[C@@H](N)C4)ncc3Cl)cc21 [Compound 82] |
| 0.92 | CNC(=O)CCn1c(=O)c(=O)n(C)c2ccc(Nc3nc(N4C[C@@H](N)C(F)(F)[C@@H](C)C4)ncc3Cl)cc21 [Compound 83] |
